In ChEMBL document CHEMBL2429758, “3-aroylmethylene-2,3,6,7-tetrahydro-1H-pyrazino[2,1-a]isoquinolin-4(11bH)-ones as potent Nrf2/ARE inducers in human cancer cells and AOM-DSS treated mice” (J Med Chem, 2013):
Activity calls are given as the source filed them. The calls are words filed in the database; no cut-off is given here.

Experiments:
[1] = target: T1, Nuclear factor erythroid 2-related factor 2 (Homo sapiens) (UniProt Q16236); assay: Induction of Nrf2-mediated ARE activity in human HepG2-ARE-C8 cells at 10 uM after 12 hrs by luciferase reporter gene assay relative to control; format: cell-based
T1 sequence (whole entry): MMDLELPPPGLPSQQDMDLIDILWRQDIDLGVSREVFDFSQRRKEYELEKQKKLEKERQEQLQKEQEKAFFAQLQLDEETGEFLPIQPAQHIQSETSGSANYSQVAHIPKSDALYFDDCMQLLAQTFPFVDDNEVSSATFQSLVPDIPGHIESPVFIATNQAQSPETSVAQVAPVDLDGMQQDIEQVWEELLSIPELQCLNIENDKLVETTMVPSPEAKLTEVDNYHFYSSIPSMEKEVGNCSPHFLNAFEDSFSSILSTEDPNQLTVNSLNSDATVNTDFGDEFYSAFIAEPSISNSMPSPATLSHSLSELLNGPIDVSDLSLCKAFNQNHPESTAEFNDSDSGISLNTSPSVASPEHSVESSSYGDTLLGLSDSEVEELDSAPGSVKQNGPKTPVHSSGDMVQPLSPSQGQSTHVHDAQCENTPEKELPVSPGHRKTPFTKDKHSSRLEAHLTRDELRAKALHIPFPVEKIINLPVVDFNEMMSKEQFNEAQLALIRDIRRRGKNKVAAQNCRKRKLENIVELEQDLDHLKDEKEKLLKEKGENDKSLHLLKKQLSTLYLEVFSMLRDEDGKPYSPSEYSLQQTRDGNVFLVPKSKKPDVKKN

[2] = target: T1, Nuclear factor erythroid 2-related factor 2 (Homo sapiens); assay: Induction of Nrf2-mediated ARE activity in human HepG2-ARE-C8 cells at 40 uM after 12 hrs by luciferase reporter gene assay relative to control; format: cell-based
[3] = target: T1, Nuclear factor erythroid 2-related factor 2 (Homo sapiens); assay: Induction of Nrf2-mediated ARE activity in human HepG2-ARE-C8 cells at 80 uM after 12 hrs by luciferase reporter gene assay relative to control; format: cell-based
[4] = target: T1, Nuclear factor erythroid 2-related factor 2 (Homo sapiens); assay: Induction of Nrf2-mediated ARE activity in human HepG2-ARE-C8 cells at 5 uM after 12 hrs by luciferase reporter gene assay relative to control; format: cell-based
[5] = target: T1, Nuclear factor erythroid 2-related factor 2 (Homo sapiens); assay: Induction of Nrf2-mediated ARE activity in human HepG2-ARE-C8 cells at 20 uM after 12 hrs by luciferase reporter gene assay relative to control; format: cell-based
[6] = system: Mus musculus; assay: Antiinflammatory activity in azoxymethane dextran sodium sulfate C57BL/6 mouse model assessed as reduction of IL-1beta expression at 50 mg/kg/day treated with food measured after 130 days by immunohistochemical analysis; format: functional, organism-based
[7] = system: HCT-116; assay: Induction of NQO1 expression in human HCT116 cells at 10 uM by Western blot analysis; format: functional, cell-based; settings: TDE = time-dependent effect
[8] = target: T1, Nuclear factor erythroid 2-related factor 2 (Homo sapiens); assay: Induction of Nrf2-mediated ARE activity in human HepG2-ARE-C8 cells at 0.1 uM after 12 hrs by luciferase reporter gene assay relative to control; format: cell-based
[9] = system: Mus musculus; assay: Toxicity in azoxymethane dextran sodium sulfate C57BL/6 mouse model assessed as change body weight at 50 mg/kg/day treated with food measured after 130 days; format: organism-based; settings: in vivo, 3120 h
[10] = system: HCT-116; assay: Induction of NQO1 expression in human HCT116 cells up to 24 hrs by Western blot analysis; format: functional, cell-based
[11] = system: HCT-116; assay: Induction of HO-1 expression in human HCT116 cells up to 8 hrs by Western blot analysis; format: functional, cell-based
[12] = system: Mus musculus; assay: Chemopreventive activity in azoxymethane dextran sodium sulfate C57BL/6 mouse model assessed as induction of Nrf2 nuclear translocation at 50 mg/kg/day treated with food measured after 130 days immunofluorescence analysis; format: functional, organism-based
[13] = target: T1, Nuclear factor erythroid 2-related factor 2 (Homo sapiens); assay: Induction of Nrf2-mediated ARE activity in human HepG2-ARE-C8 cells at 1 uM after 12 hrs by luciferase reporter gene assay relative to control; format: cell-based
[14] = target: T1, Nuclear factor erythroid 2-related factor 2 (Homo sapiens); assay: Induction of Nrf2-mediated ARE activity in human HepG2-ARE-C8 cells at 0.01 uM after 12 hrs by luciferase reporter gene assay relative to control; format: cell-based
[15] = system: Mus musculus; assay: Chemopreventive activity in azoxymethane dextran sodium sulfate C57BL/6 mouse model assessed as reduction of average size of tumor at 50 mg/kg/day treated with food measured after 130 days; format: functional
[16] = system: Mus musculus; assay: Chemopreventive activity in azoxymethane dextran sodium sulfate C57BL/6 mouse model assessed as reduction of neutrophils ratio at 50 mg/kg/day treated with food measured after 130 days (reference value: 12.73 +/- 1.65%); format: functional; design: scale not given: the % may be the effect or the level left
[17] = system: Mus musculus; assay: Chemopreventive activity in azoxymethane dextran sodium sulfate C57BL/6 mouse model assessed as reduction of developed dysplasia at 50 mg/kg/day treated with food measured after 130 days by hematoxylin and eosin staining; format: functional, organism-based
[18] = system: Mus musculus; assay: Chemopreventive activity in azoxymethane dextran sodium sulfate C57BL/6 mouse model assessed as reduction of length of colon at 50 mg/kg/day treated with food measured after 130 days (reference value: 5.62 +/- 0.69 centimeter); format: functional
[19] = system: Mus musculus; assay: Chemopreventive activity in azoxymethane dextran sodium sulfate C57BL/6 mouse model assessed as reduction of multiplicity of tumor at 50 mg/kg/day treated with food measured after 130 days; format: functional, organism-based
[20] = system: Mus musculus; assay: Chemopreventive activity in azoxymethane dextran sodium sulfate C57BL/6 mouse model assessed as reduction of tumor incidence at 50 mg/kg/day treated with food measured after 130 days; format: functional; design: scale not given: the % may be the effect or the level left
[21] = system: Mus musculus; assay: Chemopreventive activity in azoxymethane dextran sodium sulfate C57BL/6 mouse model assessed as increase of WBC level at 50 mg/kg/day treated with food measured after 130 days (reference value: 5.33 +/- 1.34 10^9/L); format: functional
[22] = system: Mus musculus; assay: Antiinflammatory activity in azoxymethane dextran sodium sulfate C57BL/6 mouse model assessed as reduction of IL-6 expression at 50 mg/kg/day treated with food measured after 130 days by immunohistochemical analysis; format: functional, organism-based
[23] = target: T1, Nuclear factor erythroid 2-related factor 2 (Homo sapiens); assay: Induction of Nrf2 nuclear translocation in human HCT116 cells at 10 uM by Western blot analysis; format: cell-based; settings: HCT-116
[24] = target: T1, Nuclear factor erythroid 2-related factor 2 (Homo sapiens); assay: Induction of Nrf2-mediated ARE activity in human HepG2-ARE-C8 cells after 12 hrs by luciferase reporter gene assay; format: cell-based
[25] = system: Mus musculus; assay: Chemopreventive activity in azoxymethane dextran sodium sulfate C57BL/6 mouse model assessed as increase of lymphocyte ratio at 50 mg/kg/day treated with food measured after 130 days (reference value: 87.75 +/- 2.16%); format: functional
[26] = system: Mus musculus; assay: Chemopreventive activity in azoxymethane dextran sodium sulfate C57BL/6 mouse model assessed as reduction of tumor burden at 50 mg/kg/day treated with food measured after 130 days; format: functional, organism-based
[27] = system: Mus musculus; assay: Toxicity in azoxymethane dextran sodium sulfate C57BL/6 mouse model assessed as sign of toxicity at 50 mg/kg/day treated with food measured after 130 days; format: organism-based; settings: in vivo, 3120 h
[28] = system: HCT-116; assay: Induction of HO-1 expression in human HCT116 cells at 10 uM by Western blot analysis; format: functional, cell-based; settings: TDE = time-dependent effect

| Compound | fold change (FC) [1] | fold change (FC) [4] | fold change (FC) [8] | fold change (FC) [13] | fold change (FC) [14] | further results |
| --- | --- | --- | --- | --- | --- | --- |
| CC(C)(C)c1cc(O)ccc1O | 1.5 | 1.04 | – | – | – | fold change (FC) [2]: 3.24; fold change (FC) [3]: 5.21; fold change (FC) [5]: 2.06 |
| O=C(/C=C1\NCC2c3ccccc3CCN2C1=O)c1ccccc1 (stereo unspecified) | 26.9 | 18.9 | 5.44 | 9.51 | 2 | inhibition [6]: Active; Activity [7]: tde; Activity [9]: Non-toxic; Activity [10]: Dose-dependent effect; Activity [11]: Dose-dependent effect; Activity [12]: Active; Activity [15]: 2.2 mm; Activity [16]: 12.39%; Activity [17]: Active; Activity [18]: 4.59 cm; Activity [19]: Active; Activity [20]: 50%; Activity [21]: 5.67 ×10⁹ /L; inhibition [22]: Active; Activity [23]: Active; Activity [24]: Dose-dependent effect; Activity [25]: 88.15%; Activity [26]: Active; Activity [27]: Non-toxic; Activity [28]: tde |
| C[S+]([O-])CCCCN=C=S (stereo unspecified) | 8.35 | 5.52 | – | 2.7 | – | fold change (FC) [5]: 18.1 |
| O=C(/C=C1\NCC2c3ccccc3CCN2C1=O)c1cccc(Br)c1 (stereo unspecified) | 15.7 | 12 | 3.4 | 8.97 | 3.1 | – |
| COc1cccc2c1CCN1C(=O)/C(=C/C(=O)c3cccc(F)c3)NCC21 (stereo unspecified) | 3.7 | 4.85 | 1.43 | 4.02 | 0.79 | – |
| O=C(/C=C1\NCC2c3ccccc3CCN2C1=O)c1cccc(C(F)(F)F)c1 (stereo unspecified) | 3.25 | 3.14 | 1.7 | 1.76 | 2.22 | – |
| COc1cccc2c1CCN1C(=O)/C(=C/C(=O)c3ccccc3)NCC21 (stereo unspecified) | 6.93 | 6.89 | 3.53 | 3.57 | 1 | – |
| O=C(/C=C1\NCC2c3ccccc3CCN2C1=O)c1cccc(F)c1 (stereo unspecified) | 33 | 29.1 | 3.89 | 9.99 | 2.18 | Activity [10]: Dose-dependent effect; Activity [11]: Dose-dependent effect |
| COc1cc2c(cc1OC)C1CN/C(=C\C(=O)c3ccccc3)C(=O)N1CC2 (stereo unspecified) | 1.67 | 1.46 | 0.85 | 1.35 | 0.86 | – |
| COc1ccc2c(c1)C1CN/C(=C\C(=O)c3ccc(F)cc3)C(=O)N1CC2 (stereo unspecified) | 2.48 | 1.82 | 1.35 | 1.74 | 1.29 | – |
